Measured values published in the SangsterLogP compilation.

Conditions: pH 7.4

Point of comparison: `CC(C)CC(O)C(O)C(CC1CCCCC1)NC(=O)C(NC(=O)C(CC(=O)N1CCN(C)CC1)Cc1ccccc1)c1cc[nH]n1` (stereo not given), logD 4.02. Against it:
- COc1ccc(CC(CC(=O)N2CCN(C)CC2)C(=O)NC(Cc2cscn2)C(=O)NC(CC2CCCCC2)C(O)C(O)CC(C)C)cc1 (stereo not given) — lower, 3.38
- CC(C)CC(O)C(CC1CCCCC1)NC(=O)C(Cc1cc[nH]n1)NC(=O)C(CC(=O)N1CCCOCC1)Cc1ccccc1 (stereo not given) — within 0.2 log units, 4.01
- CC(C)CC(O)C(O)C(CC1CCCCC1)NC(=O)C(NC(=O)C(CC(=O)N1CCN(C)CC1)Cc1ccccc1)c1c[nH]cn1 (stereo not given) — lower, 1.66
- CC(C)CC(O)C(CC1CCCCC1)NC(=O)C(Cn1ccnc1)NC(=O)C(CC(=O)N1CCOCC1)Cc1ccccc1 (stereo not given) — lower, 3.79
- CC(C)CC(O)C(CC1CCCCC1)NC(=O)C(CN=[N+]=[N-])NC(=O)C(CC(=O)N1CCCOCC1)Cc1ccccc1 (stereo not given) — within 0.2 log units, 4.1
- CC(C)CC(O)C(CC1CCCCC1)NC(=O)C(Cc1cscn1)NC(=O)C(CC(=O)N1CCOCC1)Cc1ccccc1 (stereo not given) — higher, 4.27
- CC(C)CC(O)C(O)C(CC1CCCCC1)NC(=O)C(Cc1cscn1)NC(=O)C(CC(=O)CN1CCCOCC1)Cc1ccccc1 (stereo not given) — within 0.2 log units, 3.91
- CC(C)CC(O)C(CC1CCCCC1)NC(=O)C(Cc1c[nH]cn1)NC(=O)C(CC(=O)N1CCOCC1)Cc1ccccc1 (stereo not given) — lower, 3.51
- CC(C)CC(O)C(CC1CCCCC1)NC(=O)C(Cc1cn(C)cn1)NC(=O)C(CC(=O)N1CCOCC1)Cc1ccccc1 (stereo not given) — lower, 3.71
